Assay results published in PMC4683533, “Discovery of novel INK4C small-molecule inhibitors to promote human and murine hematopoietic stem cell ex vivo expansion” (Scientific Reports, 2015).
“Also recorded” adds a separate entry of the source.

Legend:
Format in all cases: cell-based
[1] = system: human cord blood CD34+ cells (CD34+CD49f+ cells); test: human cord blood CD34+ cell ex vivo culture and screen
Procedure: Based on our study of murine HSCs, we further tested whether these p18SMIs could expand human cord blood CD34^+ cells in ex vivo culture. […] We cultured human cord blood CD34^+ cells for 7 days in HSCs expansion media in the presence of 200 nM of p18SMIs, and then analyzed the percentage and absolute number of CD34^+CD49f^+ cells by flow cytometry. We screened 40 p18SMIs, of which14 compounds could increase the number of CD34^+CD49f^+ cells compared with the control group (Fig. S6). […] Then we conducted a concentration gradient assay on top three p18SMIs with ED50 less than 10 nM (compounds 22, 40 and 41). […] Only in specific doses could they show their expansion effect on human HSCs (Fig. 4B).
Human cord blood samples were collected from consenting donors according to ethically approved procedures at Tianjin Central Hospital of Gynecology Obstetrics (Tianjin, China), under a protocol approved by the Ethical Committee on Medical Research at the Institute of Hematology. Human CD34^+ cord blood cells were isolated using human CD34 MicroBead Kit (MiltenyiBiotec) according to the manufacturer’s protocol after settling red cells with HES and red cells lysis with ACK Lysis Buffer.
Human CD34^+ cells were cultured in expansion medium consisting of StemSpan SFEM (StemCell Technologies) supplemented with 100 ng/mL human stem cell factor (SCF, PeproTech), 50 ng/mL human thrombopoietin (TPO, PeproTech), 100 ng/mL human FMS-like trysine kinase 3 ligand (Flt3L, PeproTech). Human CD34^+ cells were resuspended in expansion medium (5 × 10^4 cells/mL) before being aliquoted in 96-well plates (Costar, Corning Incorporated). Compounds, all with a final concentration of 200 nM, were dissolved in DMSO and added immediately in cell suspension after plating. The final concentration of DMSO in the control group was the same as in the compounds-treated group. Cells were cultured at 37 °C in 5% CO2. Based on the results of primary screening upon human cells and the results of ED50, we chose three compounds for further experiments. The expansion medium was changed to StemSpan SFEM (StemCell Technologies) supplemented with 100 ng/mL human stem cell factor (SCF, PeproTech), 100 ng/mL human thrombopoietin (TPO, PeproTech), 100 ng/mL human FMS-like trysine kinase 3 ligand (Flt3L, PeproTech) and 100 ng/mL human interleukin-6 (IL-6, PeproTech) for better expansion effect. The incubation condition was consistent with before.
Phenotypes analysis of cultured cells was performed on a BD FACS Array (Becton Dickinson Biosciences) using a combination of the following antibodies: APC anti-CD34 (BD Biosciences), PE anti-CD49f (BD Biosciences). Stained cells were washed once with PBS and then measured and analyzed on an FACS analyzer (FACSArray, BD Biosciences).

[2] = system: RPMI 8226; test: MTT proliferation assay on myeloma cell line
From the text: (§1) With confirmation of compound 40 promoting the expansion of HSCs, we further examined whether it might also increase the risk of malignant diseases. In order to determine the effect of compound 40 on hematological tumorigenesis, proliferation of both leukemia cell lines (KG-1 and KG-1a) and myeloma cell lines (MM.1S and RPMI 8226) was further investigated by a standard MTT assay.
(§2) To evaluate the toxicity of our top compounds, we performed a cell proliferation assay using 32D cells as well as leukemia cell lines and myeloma cell lines. Weihi-3 cells were cultured at 37 °C under 5% CO2 in RPMI 1640 medium supplemented with 10%FBS. After 48 h, the supernatant was collected and filtered. 32D cells were cultured in RPMI 1640 with 10% FBS and 10% supernatant collected from Weihi-3 cells. 8,000 32D cells or leukemia cell line (KG-1 or KG-1a) or myeloma cell line (MM.1S or RPMI 8226) were plated in a 96-well plate in 198 μL culture media per well, and then cultured (37 °C, 5% CO2) overnight. 2 μL of serially diluted compounds dissolved in saline or DMSO were added to each well and incubated (37 °C, 5% CO2) for 72 h. The concentration of DMSO was equal to the one in corresponding compound group. 20 μL of MTT solution was added to each well and then incubated (37 °C, 5% CO2) for 4 h. The percentage of cell survival was determined using the MTT assay, as previously described. The data was analyzed using GraphPad Prism v6.0.
(§3) (1 picture or pasted object on this page, not shown here)

[3] = system: MM.1S; test: MTT proliferation assay on myeloma cell line
From the text: as §1, §2, §3

[4] = system: KG-1a; test: MTT proliferation assay on leukemia cell line
From the text: as §1, §2

[5] = system: KG-1; test: MTT proliferation assay on leukemia cell line
From the text: as §1, §2

[6] = system: 32D cells; test: MTT cell proliferation assay, general cytotoxicity
Procedure: First, a cell-proliferation assay was performed on the immortalized myeloblast-like cell line 32D cells to evaluate general cytotoxicity. […] We also evaluated cytotoxicity using primary hematopoietic cells.
as §2

Compound: O=C([O-])c1ccc(S(=O)(=O)NC2CCCCC2)cc1.[Na+] [Compound 40, sodium 4-(N-cyclohexylsulfamoyl)benzoate]
- increase in the absolute number of CD34+CD49f+ cells ([1]; 200 nM, 7 days in HSCs expansion media, versus control group): > 30%
- expansion of human HSCs in concentration gradient assay ([1]; dose response, Fig. 4B): concentration related
- enhancement of proliferation (MTT) ([2]; 5 μM): did not enhance
- effect on myeloma cell line ([2]; high concentration (20 μM)): no effect
- enhancement of proliferation (MTT) ([3]; 5 μM): did not enhance
- effect on myeloma cell line ([3]; high concentration (20 μM)): no effect
- enhancement of proliferation (MTT) ([4]; any concentration): did not enhance; also recorded: no activity
- effect on leukemia cell line ([4]; high concentration (20 μM)): no effect
- enhancement of proliferation (MTT) ([5]; any concentration): did not enhance; also recorded: no activity
- effect on leukemia cell line ([5]; high concentration (20 μM)): no effect
- cytotoxicity toward 32D cells [6]: did not show significant cytotoxicity; also recorded: not cytotoxic
- cytotoxic effects (cell viability, MTT) ([6]; 25 μM): did not show any cytotoxic effects
- cell viability (MTT) ([6]; 50 μM, thought to be due to cytotoxicity of the solvent DMSO): only slight decreases in cell viability
